Experimental data as given in patent publication US20240239788A1, “SMALL MOLECULE INHIBITORS OF KRAS G12D MUTANT” (Merck Sharp & Dohme LLC, priority 2021, published 2024).
Read-outs that look alike come from different tables or passages of the source.

What was measured:
[1] = biological target: KRAS G12D / Ras binding domain of C-RAF (Homo sapiens (Human), UniProt P01116, G12D); experiment: RAS:RAF-RBD binding assay (cRaf), TR-FRET; details: biotinylated KRAS G12D, GST-C-RAF RBD
[2] = biological target: KRAS protein containing G12D mutation (Homo sapiens (Human), UniProt P01116, G12D); experiment: SOS-catalyzed nucleotide exchange assay (GNE), TR-FRET; type: biochemical; details: biotinylated KRAS G12D, SOS and GTP, 60-minute incubation
Sequence of KRAS protein containing G12D mutation (P01116 other isoform, or with tags, fused parts or gaps G12D (already in the parent)): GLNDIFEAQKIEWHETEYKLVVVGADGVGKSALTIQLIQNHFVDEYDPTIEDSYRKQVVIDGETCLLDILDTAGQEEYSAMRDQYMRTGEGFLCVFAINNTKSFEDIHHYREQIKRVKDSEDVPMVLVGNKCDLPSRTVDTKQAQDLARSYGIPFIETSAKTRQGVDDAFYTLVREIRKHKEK
Procedure: Compounds are added to this complex and then after a 60-minute incubation time the mixture is treated with SOS and unlabeled GTP. Small molecule inhibitors stabilize the Bodipy-GDP complex whereas the untreated protein rapidly exchanges Bodipy-GDP for unlabeled GTP resulting in reduced TR-FRET signal.
This solution is referred to as biotinylated KRAS G12D stock solution.

[3] = tested on: AsPC-1 cells containing homozygous KRAS-G12D activating mutation; experiment: Cellular phospho-ERK assay (Examples 1a-106); type: cell-based; details: AsPC-1 cells, 2 hours, ratio of p-Erk vs total Erk, read-out: IC50 (nM) pERK (Cell)
Source text: 5% CO? overnight. […] Assay plates were read on a EnVision Multimode Plate Reader (PerkinElmer) and the ratio of p-Erk vs total Erk in each well was used as the final readout.

Sequence of KRAS G12D / Ras binding domain of C-RAF (P01116 other isoform, or with tags, fused parts or gaps G12D (already in the parent)): as above

SMILES | IC50 ([1]; read-out: IC50 (nM) (cRaf)) | IC50 [2] | IC50 [3] | IC50 ([1]; IC50 (nM) (cRaf)) | IC50 ([3]; Homo sapiens, ASPC1, 2 h)
Cc1cc(N)nc(-c2c(F)cc3c(N4CC5CCC(C4)N5)nc(OCC4(CN5CCOCC5)CC4)nc3c2F)c1C(F)(F)F [Ex. 87, 6-(4-(3.8-diazabicyclo[3.2.1]octan-3-yl)-6,8-difluoro-2-((1-(morpholinomethyl)cyclopropyl)methoxy)quinazolin-7-yl)-4-methyl-5-(trifluoromethyl)pyridin-2-amine] | 11400 nM | 37.4 nM | 1340 nM |  | 
C[C@]12CC[C@H](CN(c3nc(OC[C@@]45CCCN4C[C@H](F)C5)nc4c(F)c(-c5cc(O)cc6cccc(Cl)c56)c(F)cc34)C1)N2 [Ex. 89, 5-chloro-4-(6,8-difluoro-2-(((2R,7aS)-2-fluorotetrahydro-1H-pyrrolizin-7a(5H)-yl)methoxy)-4-((1S,5R)-1-methyl-3,8-diazabicyclo[3.2.1]octan-3-yl)quinazolin-7-yl)naphthalen-2-ol] |  | 0.565 nM |  | 31.8 nM | 46 nM
C[C@]12CC[C@H](CN(c3nc(OCC4(CN5CC[C@@H](F)C5)CC4)nc4c3CCN(c3cccc5cccc(Br)c35)C4)C1)N2 [Ex. 93, 7-(8-bromonaphthalen-1-yl)-2-((1-(((R)-3-fluoropyrrolidin-1-yl)methyl)cyclopropyl)methoxy)-4-((1S,5R)-1-methyl-3,8-diazabicyclo[3.2.1]octan-3-yl)-5,6,7,8-tetrahydropyrido[3.4-d]pyrimidine] | 35300 nM | 437 nM | 7130 nM |  | 
O=c1oc(-c2cc(O)cc3ccccc23)cc2nc(OCC3(CN4CCOCC4)CC3)nc(N3CC4CCC(C3)N4)c12 [Ex. 95, 4-(3.8-diazabicyclo[3.2.1]octan-3-yl)-7-(3-hydroxynaphthalen-1-yl)-2-((1-(morpholinomethyl)cyclopropyl)methoxy)-5H-pyrano[4.3-d]pyrimidin-5-one] | 15900 nM | 73.4 nM | 10800 nM |  | 
C[C@]12CC[C@H](CN(c3nc(OC[C@@]45CCCN4C[C@H](F)C5)nc4c(F)c(-c5cc(O)cc6cccc(Cl)c56)ncc34)C1)N2 [Ex. 99, 5-chloro-4-(8-fluoro-2-(((2R,7aS)-2-fluorotetrahydro-1H-pyrrolizin-7a(5H)-yl)methoxy)-4-((1S,5R)-1-methyl-3,8-diazabicyclo[3.2.1]octan-3-yl)pyrido[4,3-d]pyrimidin-7-yl)naphthalen-2-ol] | 57.5 nM | 2.46 nM |  |  | 243 nM
CN(C)C[C@@]1(COc2nc(N3C[C@H]4CC[C@@](C)(C3)N4)c3cnc(-c4cc(O)cc5cccc(Cl)c45)c(F)c3n2)CC1(F)F [Ex. 100, 5-chloro-4-(2-(((R)-1-((dimethylamino)methyl)-2,2-difluorocyclopropyl)methoxy)-8-fluoro-4-((1S,5R)-1-methyl-3,8-diazabicyclo[3.2.1]octan-3-yl)pyrido[4,3-d]pyrimidin-7-yl)naphthalen-2-ol] |  | 1.56 nM |  | 89.9 nM | 99.8 nM
CN(C)CC1(COc2nc(N3C[C@H]4CC[C@@](C)(C3)N4)c3nnc(-c4cc(O)cc5ccccc45)cc3n2)CC1 [Ex. 101, 4-(6-((1-((dimethylamino)methyl)cyclopropyl)methoxy)-8-((1S,5R)-1-methyl-3,8-diazabicyclo[3.2.1]octan-3-yl)pyrimido[5,4-c]pyridazin-3-yl)naphthalen-2-ol] |  | 1020 nM |  | 20900 nM | 42200 nM
CN(C)CC1(COc2nc(N3C[C@@H]4CC[C@H]3CN4)c3cc(F)c(-c4cc(O)cc5ccccc45)c(F)c3n2)CC1 [Example 7, 4-(4-((1S,4S)-2,5-diazabicyclo[2.2.2]octan-2-yl)-2-((1-((dimethylamino)methyl)cyclopropyl)methoxy)-6,8-difluoroquinazolin-7-yl)naphthalen-2-ol] |  | 35.5 nM |  | 2990 nM | 5020 nM
CN(C)CC1(COc2nc(N3C[C@@H]4CC[C@](C)(C3)N4)c3cc(F)c(-c4cc(O)cc5ccccc45)c(F)c3n2)CC1 [Example 20, 4-(2-((1-((dimethylamino)methyl)cyclopropyl)methoxy)-6,8-difluoro-4-((1R,5S)-1-methyl-3,8-diazabicyclo[3.2.1]octan-3-yl)quinazolin-7-yl)naphthalen-2-ol] |  | 117 nM |  | 14400 nM | 3500 nM
CN(C)CC1(COc2nc(N3C[C@H]4CC[C@@](C)(C3)N4)c3cc(F)c(-c4cc(O)cc5ccccc45)c(F)c3n2)CC1 [Example 21, 4-(2-((1-((dimethyl-amino)methyl)cyclo-propyl)methoxy)-6,8-difluoro-4-((1S,5R)-1-methyl-3,8-diazabicy-clo[3.2.1]octan-3-yl)quinazolin-7-yl)naphthalen-2-ol] |  | 14.4 nM |  | 1980 nM | 636 nM
COC1CC2CN(c3nc(OCC4(CN(C)C)CC4)nc4c(F)c(-c5cc(O)cc6ccccc56)c(F)cc34)CC1N2 [Example 24, 4-(2-((1-((dimethylamino)meth-yl)cyclopropyl)meth-oxy)-6,8-difluoro-4-(6-methoxy-3,8-di-azabicyclo[3.2.1]octan-3-yl)quinazolin-7-yl)naphthalen-2-olR,R,] | 10800 nM | 280 nM | 7110 nM |  | 
COC1CC2CN(c3nc(OCC4(CN(C)C)CC4)nc4c(F)c(-c5cc(O)cc6ccccc56)c(F)cc34)CC1N2 (stereo not drawn) [Example 25, 4-(2-((1-((dimethyl-amino)methyl)cyclo-propyl)methoxy)-6,8-difluoro-4-(6-methoxy-3,8-diazabicyclo[3.2.1]oc-tan-3-yl)quinazolin-7-yl)naphthalen-2-ol] |  | 454 nM |  | 20300 nM | 7070 nM
COC1CC2CN(c3nc(OCC4(CN(C)C)CC4)nc4c(F)c(-c5cc(O)cc6ccccc56)c(Cl)cc34)CC1N2 [Example 26, 4-(6-chloro-2-((1-((dimethylamino)meth-yl)cyclo-propyl)methoxy)-8-fluoro-4-(R,R,6-methoxy-3,8-diazabi-cyclo[3.2.1]octan-3-yl)quinazolin-7-yl)naphthalen-2-ol] |  | 358 nM |  | 11800 nM | 10400 nM
CN(C)CC1(COc2nc(N3CC4(C)CCC(C)(C3)N4)c3cc(F)c(-c4cc(O)cc5ccccc45)c(F)c3n2)CC1 [Example 32, 4-(4-(1,5-dimethyl-3,8-diazabicy-clo[3.2.1]octan-3-yl)-2-((1-((dimethyl-amino)methyl)cyclo-propyl)methoxy)-6,8-difluoroquinazolin-7-yl)naphthalen-2-ol] |  | 64.2 nM |  | 1430 nM | 2260 nM
CCC12CCC(CN(c3nc(OCC4(CN(C)C)CC4)nc4c(F)c(-c5cc(O)cc6ccccc56)c(F)cc34)C1)N2 (stereo not drawn) [Example 33, 4-(2-((1-((dimethylamino)meth-yl)cyclopro-pyl)methoxy)-4-(1-ethyl-3,8-diazabicy-clo[3.2.1]octan-3-yl)-6,8-difluoroquinazolin-7-yl)naphthalen-2-ol] |  | 88.5 nM |  | 5070 nM | 3450 nM
CN(C)CC1(COc2nc(N3CC4CCC(F)(C3)N4)c3cc(Cl)c(-c4cc(O)cc5ccccc45)c(F)c3n2)CC1 (stereo not drawn) [Example 34, 4-(6-chloro-2-((1-((dimethylamino)meth-yl)cyclopropyl)meth-oxy)-8-fluoro-4-(1-fluoro-3,8-diaza-bicyclo[3.2.1]octan-3-yl)quinaozlin-7-yl)naphthalen-2-ol] |  | 2560 nM |  | 38300 nM | 11500 nM
CN(C)CC1(COc2nc(N3CC4CC[C@@](C)(C3)N4)c3cc(Cl)c(-c4cc(O)cc5ccccc45)c(F)c3n2)CC1 [Example 35, 4-(6-chloro-2-((1-((dimethylamino)meth-yl)cyclopro-pyl)methoxy)-8-fluoro-4-((1S,5R)-1-methyl-3,8-diaza-bicyclo[3.2.1]octan-3-yl)quinazolin-7-yl)naphthalen-2-ol] |  | 27.3 nM |  | 1890 nM | 2260 nM
CN(C)CC1(COc2nc(N3CC4CCC(CC#N)(C3)N4)c3cc(Cl)c(-c4cc(O)cc5ccccc45)c(F)c3n2)CC1 (stereo not drawn) [Example 36, 2-(3-(6-chloro-2-((1-((dimethylamino)meth-yl)cyclopro-pyl)methoxy)-8-fluoro-7-(3-hydroxy-naphthalen-1-yl)quinazolin-4-yl)-3,8-diazabicyclo[3.2.1]oc-tan-1-yl)acetonitrile] |  | 4680 nM |  | 50000 nM | 46400 nM
CC[C@H]1N[C@H]2CC[C@@H]1N(c1nc(OCC3(CN(C)C)CC3)nc3c(F)c(-c4cc(O)cc5ccccc45)c(Cl)cc13)C2 [Example 39, 4-(6-chloro-2-((1-((dimethylamino)methyl)cyclopropyl)methoxy)-4-((1S,4S,6R)-6-ethyl-2,5-diazabicyclo[2.2.2]octan-2-yl)-8-fluoroquinazolin-7-yl)naphthalen-2-ol] |  | 46.7 nM |  | 4670 nM | 3310 nM
CN(C)CC1(COc2nc(N3CC4CCC(C3)N4)c3cc(Cl)c(-c4cc(O)ccc4[Si](C)(C)C)c(F)c3n2)CC1 [Example 45, 3-(4-(3,8-diazabicyclo[3.2.1]octan-3-yl)-6-chloro-2-((1-((dimethylamino)methyl)cyclopropyl)methoxy)-8-fluoroquinazolin-7-yl)-4-(trimethylsilyl)phenol] |  | 376 nM |  | 31600 nM | 5470 nM
